Here are results for 8 molecules from patent publication US9617256B2 (priority 2007, dated 2017).

Values after ≈ are worked out from the molar mass of the structure shown.

Assay [1] has as its system AECO001 (ATCC25922). As to the kind of experiment: MIC broth microdilution, AECO001. It is filed as cell-based, E. coli. The conditions noted are these: for MIC: Escherichia coli, ATCC25922, read-out: MIC AECO001. The method in brief: (§1)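 Strains were grown overnight at 35° C. on Mueller-Hinton agar, suspended to 0.5 McFarland and diluted to a final 3×10^5–7×10^5 CFU/mL. They were then exposed to 2-fold serial drug dilutions in cation-adjusted Mueller-Hinton broth and incubated 18-24 hours at 35° C.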
In general terms: Broth dilution looks for growth in wells or tubes with falling amounts of substance.

In assay [2] the test system is AECO063 (ATCC25922 bearing an acrAB mutation). Kind of assay: microbe, parasite or virus in culture. Particulars: for MIC: Escherichia coli, ATCC25922, read-out: MIC AECO063. It is filed as cell-based, E. coli. In a few lines:
as §1

Assay [3] relates to APAE001 (ATCC27853). As to the kind of experiment: MIC broth microdilution, APAE001. The conditions noted are these: for MIC: Pseudomonas aeruginosa, ATCC27853, read-out: MIC APAE001, APAE001 is ATCC27853. In kind it is cell-based, P. aeruginosa. The method in brief:
as §1

Assay [4] deals with APAE006 (strain of P. aeruginosa in which all efflux pumps are inactivated). Kind of assay: microbe, parasite or virus in culture. In kind it is cell-based. Particulars: for MIC: Pseudomonas aeruginosa, read-out: MIC APAE006, P. aeruginosa, all efflux pumps inactivated. In a few lines: (§2)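 Two-fold drug dilutions in cation-adjusted MHB were inoculated to 3×10^5–7×10^5 CFU/mL and held at 35° C. for 18-24 hours (ambient air), following CLSI. APAE006 is an efflux-deficient P. aeruginosa.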

In assay [5] the test system is APAE006 in the presence of 8 micrograms per milliliter of polymyxin B nonapeptide. In kind it is cell-based, P. aeruginosa. Particulars: in the presence of 8 micrograms per milliliter of polymyxin B nonapeptide. In a few lines:
as §2

The subject of assay [6] is AABA1060 (clinical isolate of Acinetobacter baumannii). Kind of assay: MIC broth microdilution, AABA1060. It is filed as cell-based. The conditions noted are these: for MIC: Acinetobacter baumannii, read-out: MIC AABA1060. In a few lines: as §1
Assay [7] concerns ASAU001 (laboratory strain of S. aureus, ATCC29213). Kind of assay: MIC broth microdilution, ASAU001. In kind it is cell-based. The conditions noted are these: for MIC: Staphylococcus aureus, ATCC29213, read-out: MIC ASAU001. The method in brief:
as §1

In assay [8] the test system is AECO001 HSA AGP. As to the kind of experiment: MIC broth microdilution, AECO001 HSA AGP. It is filed as cell-based, E. coli. The conditions noted are these: for MIC: Escherichia coli. In a few lines:
as §1

`O=C(CNC1CC1)NC[C@H](NC(=O)c1ccc(C#C/C=C/c2ccc(CO)cc2)cc1)C(=O)NO` [Example 103-1, N—[(S)-2-(2-cyclopropylamino-acetylamino)-1-hydroxycarbamoyl-ethyl]-4-[(E)-4-(4-hydroxymethyl-phenyl)-but-3-en-1-ynyl]-benzamide]: the MIC in assay [1] is less than 2 µg/mL; in assay [2] it was less than 2 µg/mL; in assay [3], 2 to 16 µg/mL (≈ 4.2 to 33.6 µM); in assay [4], less than 2 µg/mL; in assay [6], more than 64 µg/mL; in assay [7] it was more than 64 µg/mL. The MIC in assay [8] lay in the range of 2 to 16 µg/mL (≈ 4.2 to 33.6 µM). Further, the “MIC APAE006 + PMBN” value in assay [5] is “A (MIC's of 2.0 μg/mL or less = A)”.

Take `C[C@@H](O)[C@H](NC(=O)c1ccc(C#C/C=C/c2ccccc2)cc1)C(=O)NO` [Example 104-1, N-((1S,2R)-2-Hydroxy-1-hydroxycarbamoyl-propyl)-4-((E)-4-phenyl-but-3-en-1-ynyl)-benzamide]: the MIC in assay [1] was less than 2 µg/mL; in assay [2], less than 2 µg/mL; in assay [3], 2 to 16 µg/mL (≈ 5.49 to 43.9 µM); in assay [4], less than 2 µg/mL; in assay [6], 2 to 16 µg/mL (≈ 5.49 to 43.9 µM); in assay [7], 16 to 64 µg/mL (≈ 43.9 to 176 µM). The molecule further yielded an MIC in assay [8] of 2 to 16 µg/mL (≈ 5.49 to 43.9 µM). Besides, in assay [5], the “MIC APAE006 + PMBN” value is recorded as “A (MIC's of 2.0 μg/mL or less = A)”.

On to `NC[C@H](NC(=O)c1ccc(C#C/C=C/c2ccccc2)cc1)C(=O)NO` [Example 104-2], for which the MIC is less than 2 µg/mL in assay [1]; less than 2 µg/mL in assay [2]; 2 to 16 µg/mL (≈ 5.72 to 45.8 µM) in assay [3]; less than 2 µg/mL in assay [4]; 16 to 64 µg/mL (≈ 45.8 to 183 µM) in assay [6]; 16 to 64 µg/mL (≈ 45.8 to 183 µM) in assay [7]. The MIC in assay [8] lay in the range of 2 to 16 µg/mL (≈ 5.72 to 45.8 µM). Besides, in assay [5], the “MIC APAE006 + PMBN” value is given as “A (MIC's of 2.0 μg/mL or less = A)”.

As for `CC(C)(O)[C@H](NC(=O)c1ccc(C#C/C=C/c2ccccc2)cc1)C(=O)NO` [Example 104-3], the MIC in assay [1] was less than 2 µg/mL; in assay [2], less than 2 µg/mL; in assay [3], less than 2 µg/mL; in assay [4] it was less than 2 µg/mL; in assay [6], less than 2 µg/mL; in assay [7], 16 to 64 µg/mL (≈ 42.3 to 169 µM). The MIC in assay [8] is 2 to 16 µg/mL (≈ 5.29 to 42.3 µM). Also, the “MIC APAE006 + PMBN” value in assay [5] is given as “A (MIC's of 2.0 μg/mL or less = A)”.

As for `C[C@@H](N)[C@H](NC(=O)c1ccc(C#C/C=C/c2ccccc2)cc1)C(=O)NO` [Example 104-4], the MIC in assay [1] is less than 2 µg/mL; in assay [2], less than 2 µg/mL; in assay [3], less than 2 µg/mL; in assay [4], less than 2 µg/mL; in assay [6], 2 to 16 µg/mL (≈ 5.5 to 44 µM); in assay [7], 16 to 64 µg/mL (≈ 44 to 176 µM). Further, the MIC in assay [8] is 2 to 16 µg/mL (≈ 5.5 to 44 µM). Moreover, the “MIC APAE006 + PMBN” value in assay [5] was “A (MIC's of 2.0 μg/mL or less = A)”.

Take `O=C(CNC1CC1)NC[C@H](NC(=O)c1ccc(C#C/C=C/c2ccccc2)cc1)C(=O)NO` [Example 105-1, N—[(S)-2-(2-Cyclopropylamino-acetylamino)-1-hydroxycarbamoyl-ethyl]-4-((E)-4-phenyl-but-3-en-1-ynyl)-benzamide]: the MIC in assay [1] is less than 2 µg/mL; in assay [2], less than 2 µg/mL; in assay [3], 2 to 16 µg/mL (≈ 4.48 to 35.8 µM); in assay [4] it was less than 2 µg/mL; in assay [6], 16 to 64 µg/mL (≈ 35.8 to 143 µM); in assay [7] it was 16 to 64 µg/mL (≈ 35.8 to 143 µM). The same molecule yielded an MIC in assay [8] of 2 to 16 µg/mL (≈ 4.48 to 35.8 µM). Further, the “MIC APAE006 + PMBN” value in assay [5] is recorded as “A (MIC's of 2.0 μg/mL or less = A)”.

Regarding `C[C@H](NCC(=O)NC[C@H](NC(=O)c1ccc(C#C/C=C/c2ccccc2)cc1)C(=O)NO)c1ccccc1` [Example 105-2, N—{(S)-1-Hydroxycarbamoyl-2-[2-((S)-1-phenyl-ethylamino)-acetylamino]-ethyl}-4-((E)-4-phenyl-but-3-en-1-ynyl)-benzamide], the MIC in assay [1] is less than 2 µg/mL; in assay [2] it was less than 2 µg/mL; in assay [3], 2 to 16 µg/mL (≈ 3.92 to 31.3 µM); in assay [4] it was less than 2 µg/mL; in assay [6] it was 16 to 64 µg/mL (≈ 31.3 to 125 µM); in assay [7], 16 to 64 µg/mL (≈ 31.3 to 125 µM). The MIC in assay [8] is less than 2 µg/mL. Also, the “MIC APAE006 + PMBN” value in assay [5] is given as “A (MIC's of 2.0 μg/mL or less = A)”.

Turning to `C[C@@H](NC(=O)CNC1CC1)[C@H](NC(=O)c1ccc(C#C/C=C/c2ccccc2)cc1)C(=O)NO` [Example 105-3], in assay [1] (AECO001 is ATCC25922), the “MIC AECO001” value is “C (MIC's of greater than 16.0 μg/mL to 64.0 μg/mL = C)”. In addition, the “MIC AECO063” value in assay [2] (ATCC25922 bearing an acrAB mutation) is recorded as “B (MIC's of greater than 2.0 μg/mL to 16.0 μg/mL = B)”. The “MIC APAE001” value in assay [3] (APAE001 is ATCC27853) was “C (MIC's of greater than 16.0 μg/mL to 64.0 μg/mL = C)”. The “MIC APAE006” value in assay [4] (P. aeruginosa, all efflux pumps inactivated) was “B (MIC's of greater than 2.0 μg/mL to 16.0 μg/mL = B)”. The “MIC APAE006 + PMBN” value in assay [5] is “A (MIC's of 2.0 μg/mL or less = A)”. Also, the “MIC AABA1060” value in assay [6] (clinical isolate of Acinetobacter baumannii) is “C (MIC's of greater than 16.0 μg/mL to 64.0 μg/mL = C)”. Besides, the “MIC ASAU001” value in assay [7] (S. aureus ATCC29213) is reported as “C (MIC's of greater than 16.0 μg/mL to 64.0 μg/mL = C)”. Further, in assay [8], the “MIC AECO001 HSA AGP” value is on record as “C (MIC's of greater than 16.0 μg/mL to 64.0 μg/mL = C)”.
